Target: PI3Kδ (Homo sapiens (Human), UniProt O00329)
Assay type: biochemical
Conditions: PI3Kδ Alphascreen assay
Method: A PI3K Alphascreen® assay (PerkinElmer, Waltham, Mass.) was used to measure the activity of a panel of four phosphoinositide 3-kinases: PI3Kα, PI3Kβ, PI3Kγ, and PI3Kδ. Enzyme reaction buffer was prepared using sterile water (Baxter, Deerfield, Ill.) and 50 mM Tris HCl pH 7, 14 mM MgCl2, 2 mM sodium cholate, and 100 mM NaCl. 2 mM DTT was added fresh the day of the experiment. The Alphascreen buffer was made using sterile water and 10 mM Tris HCl pH 7.5, 150 mM NaCl, 0.10% Tween 20, and 30 mM EDTA. 1 mM DTT was added fresh the day of the experiment. Compound source plates used for this assay were 384-well Greiner clear polypropylene plates containing test compounds at 5 mM and diluted 1:2 over 22 concentrations. Columns 23 and 24 contained only DMSO as these wells comprised the positive and negative controls, respectively. Source plates were replicated by transferring 0.5 uL per well into 384-well Optiplates (PerkinElmer, Waltham, Mass.).
Each PI3K isoform was diluted in enzyme reaction buffer to 2× working stocks. PI3Kα was diluted to 1.6 nM, PI3Kβ was diluted to 0.8 nM, PI3Kγ was diluted to 15 nM, and PI3Kδ was diluted to 1.6 nM. PI(4,5)P2 (Echelon Biosciences, Salt Lake City, Utah) was diluted to 10 μM and ATP was diluted to 20 μM. This 2× stock was used in the assays for PI3Kα and PI3Kβ. For assay of PI3Kγ and PI3Kδ, PI(4,5)P2 was diluted to 10 μM and ATP was diluted to 8 μM to prepare a similar 2× working stock. Alphascreen reaction solutions were made using beads from the anti-GST Alphascreen kit (PerkinElmer, Waltham, Mass.). Two 4× working stocks of the Alphascreen reagents were made in Alphascreen reaction buffer. In one stock, biotinylated-IP4 (Echelon Biosciences, Salt Lake City, Utah) was diluted to 40 nM and streptavadin-donor beads were diluted to 80 μg/mL. In the second stock, PIP3-binding protein (Echelon Biosciences, Salt Lake City, Utah) was diluted to 40 nM and anti-GST-acceptor beads were diluted to 80 μg/mL.
Using a 384-well Multidrop (Titertek, Huntsville, Ala.), 10 μL/well of 2× enzyme stock was added to columns 1-24 of the assay plates for each isoform. 10 μL/well of the appropriate substrate 2× stock (containing 20 μM ATP for the PI3Kα and β assays and containing 8 μM ATP for the PI3Kγ and δ assays) was then added to Columns 1-24 of all plates. Plates were then incubated at room temperature for 20 minutes. In the dark, 10 μL/well of the donor bead solution was added to columns 1-24 of the plates to quench the enzyme reaction. The plates were incubated at room temperature for 30 minutes. Still in the dark, 10 μL/well of the acceptor bead solution was added to columns 1-24 of the plates. The plates were then incubated in the dark for 1.5 hours. The plates were read on an Envision multimode Plate Reader (PerkinElmer, Waltham, Mass.) using a 680 nm excitation filter and a 520-620 nm emission filter.

PI3Kδ, sequence (O00329 whole entry): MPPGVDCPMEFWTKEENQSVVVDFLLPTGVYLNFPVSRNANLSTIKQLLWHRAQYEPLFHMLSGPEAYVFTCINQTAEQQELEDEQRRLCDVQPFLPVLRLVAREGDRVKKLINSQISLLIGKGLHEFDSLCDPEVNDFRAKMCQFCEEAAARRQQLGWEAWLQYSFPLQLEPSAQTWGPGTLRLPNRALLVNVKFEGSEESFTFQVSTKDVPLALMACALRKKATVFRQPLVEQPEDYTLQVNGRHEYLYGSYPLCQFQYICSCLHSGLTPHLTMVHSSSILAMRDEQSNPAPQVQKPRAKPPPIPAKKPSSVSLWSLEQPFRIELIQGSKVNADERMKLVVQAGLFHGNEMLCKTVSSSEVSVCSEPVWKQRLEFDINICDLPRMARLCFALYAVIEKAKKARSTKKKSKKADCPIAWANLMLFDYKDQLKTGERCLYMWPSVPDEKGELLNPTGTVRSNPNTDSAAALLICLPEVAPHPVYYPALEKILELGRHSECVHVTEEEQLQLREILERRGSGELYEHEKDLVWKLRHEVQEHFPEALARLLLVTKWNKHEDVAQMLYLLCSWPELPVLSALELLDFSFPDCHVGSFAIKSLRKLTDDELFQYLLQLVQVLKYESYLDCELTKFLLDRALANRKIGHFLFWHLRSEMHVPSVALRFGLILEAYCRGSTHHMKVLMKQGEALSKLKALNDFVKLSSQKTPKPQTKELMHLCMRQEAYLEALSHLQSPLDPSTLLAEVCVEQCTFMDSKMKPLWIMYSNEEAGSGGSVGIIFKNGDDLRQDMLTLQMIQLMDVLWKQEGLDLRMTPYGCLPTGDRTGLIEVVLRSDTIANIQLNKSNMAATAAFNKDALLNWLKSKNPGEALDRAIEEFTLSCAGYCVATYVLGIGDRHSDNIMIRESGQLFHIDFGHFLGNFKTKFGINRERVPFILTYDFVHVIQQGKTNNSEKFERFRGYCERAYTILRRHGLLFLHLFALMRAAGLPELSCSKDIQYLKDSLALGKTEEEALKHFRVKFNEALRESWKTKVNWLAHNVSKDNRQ
PI3Kδ, sequence (P27986 whole entry partner): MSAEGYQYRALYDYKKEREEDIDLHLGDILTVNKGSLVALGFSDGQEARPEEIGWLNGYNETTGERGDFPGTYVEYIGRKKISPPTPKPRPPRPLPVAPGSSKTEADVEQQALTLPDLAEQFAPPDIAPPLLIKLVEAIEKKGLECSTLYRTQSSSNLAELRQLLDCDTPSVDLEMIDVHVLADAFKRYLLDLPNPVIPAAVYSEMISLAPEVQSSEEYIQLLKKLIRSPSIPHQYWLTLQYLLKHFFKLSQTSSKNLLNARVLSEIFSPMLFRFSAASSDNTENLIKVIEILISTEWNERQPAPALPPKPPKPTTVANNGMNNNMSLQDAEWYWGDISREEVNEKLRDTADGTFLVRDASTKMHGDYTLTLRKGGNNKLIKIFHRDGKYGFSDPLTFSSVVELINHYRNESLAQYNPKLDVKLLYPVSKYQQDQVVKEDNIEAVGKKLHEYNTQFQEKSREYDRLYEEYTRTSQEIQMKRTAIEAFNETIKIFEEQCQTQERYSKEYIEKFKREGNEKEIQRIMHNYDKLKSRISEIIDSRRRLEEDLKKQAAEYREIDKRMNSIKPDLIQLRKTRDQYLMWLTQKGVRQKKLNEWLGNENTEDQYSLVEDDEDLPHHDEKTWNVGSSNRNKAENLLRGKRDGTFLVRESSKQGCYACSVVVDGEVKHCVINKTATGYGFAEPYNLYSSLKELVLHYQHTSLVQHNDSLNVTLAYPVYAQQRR

Row | Structure (SMILES) | Ki
1 | COc1cc(-c2nc3cc(F)cc(F)c3c(N3CC4(CCOCC4)c4ncc(N5CCOCC5)cc43)c2C)ccn1 [1′-(5,7-difluoro-2-(2-methoxy-4-pyridinyl)-3-methyl-4-quinolinyl)-6′-(4-morpholinyl)-1′,2,2′,3,5,6-hexahydrospiro[pyran-4,3′-pyrrolo[3,2-b]pyridine]] | 6.89 nM
2 | Cc1c(N2CCNCC2)nc2cc(F)cc(F)c2c1N1CC2(CCOCC2)c2ncc(N3CCOCC3)cc21 [1′-(5,7-difluoro-3-methyl-2-(1-piperazinyl)-4-quinolinyl)-6′-(4-morpholinyl)-1′,2,2′,3,5,6-hexahydrospiro[pyran-4,3′-pyrrolo[3,2-b]pyridine]] | 1.37 nM
3 | Cc1c(-c2ccccc2S(C)(=O)=O)nc2cc(F)cc(F)c2c1N1CC2(CCOCC2)c2ncc(N3CCOCC3)cc21 [1′-(5,7-difluoro-3-methyl-2-(2-(methylsulfonyl)phenyl)-4-quinolinyl)-6′-(4-morpholinyl)-1′,2,2′,3,5,6-hexahydrospiro[pyran-4,3′-pyrrolo[3,2-b]pyridine]] | 4.51 nM
4 | Cc1c(-c2ccccn2)nc2cc(F)cc(F)c2c1N1CC2(CCOCC2)c2ncc(N3CCOCC3)cc21 [1′-(5,7-difluoro-3-methyl-2-(2-pyridinyl)-4-quinolinyl)-6′-(4-morpholinyl)-1′,2,2′,3,5,6-hexahydrospiro[pyran-4,3′-pyrrolo[3,2-b]pyridine]] | 9.44 nM
5 | Cc1c(N2CCN(S(C)(=O)=O)CC2)nc2cc(F)cc(F)c2c1N1CC2(CCOCC2)c2ncc(N3CCOCC3)cc21 [1′-(5,7-difluoro-3-methyl-2-(4-(methylsulfonyl)-1-piperazinyl)-4-quinolinyl)-6′-(4-morpholinyl)-1′,2,2′,3,5,6-hexahydrospiro[pyran-4,3′-pyrrolo[3,2-b]pyridine]] | 2.3 nM
6 | Cc1ccc(S(C)(=O)=O)c(-c2nc3cc(F)cc(F)c3c(N3CC4(CCOCC4)c4ncc(N5CCOCC5)cc43)c2C)c1 [1′-(5,7-difluoro-3-methyl-2-(5-methyl-2-(methylsulfonyl)phenyl)-4-quinolinyl)-6′-(4-morpholinyl)-1′,2,2′,3,5,6-hexahydrospiro[pyran-4,3′-pyrrolo[3,2-b]pyridine]] | 1.51 nM
7 | Cc1c(-c2ccccn2)nc2cccc(F)c2c1N1CC2(CCOCC2)c2ncc(N3CCOCC3)cc21 [1′-(5-fluoro-3-methyl-2-(2-pyridinyl)-4-quinolinyl)-6′-(4-morpholinyl)-1′,2,2′,3,5,6-hexahydrospiro[pyran-4,3′-pyrrolo[3,2-b]pyridine]] | 6.48 nM
8 | Cc1c(-c2ccccn2)nc2cc(F)ccc2c1N1CC2(CCOCC2)c2ncc(-c3cn[nH]c3)cc21 [1′-(7-fluoro-3-methyl-2-(2-pyridinyl)-4-quinolinyl)-6′-(1H-pyrazol-4-yl)-1′,2,2′,3,5,6-hexahydrospiro[pyran-4,3′-pyrrolo[3,2-b]pyridine]] | 320 nM
9 | Cc1c(-c2ccccn2)nc2cc(F)ccc2c1N1CC2(CCOCC2)c2nc(N)c(N3CCOCC3)cc21 [1′-(7-fluoro-3-methyl-2-(2-pyridinyl)-4-quinolinyl)-6′-(4-morpholinyl)-1′,2,2′,3,5,6-hexahydrospiro[pyran-4,3′-pyrrolo[3,2-b]pyridin]-5′-amine] | 29 nM
10 | Cc1c(-c2ccccn2)nc2cc(F)ccc2c1N1CC2(CCOCC2)c2nc(C#N)c(N3CCOCC3)cc21 [1′-(7-fluoro-3-methyl-2-(2-pyridinyl)-4-quinolinyl)-6′-(4-morpholinyl)-1′,2,2′,3,5,6-hexahydrospiro[pyran-4,3′-pyrrolo[3,2-b]pyridine]-5′-carbonitrile] | 219 nM
11 | Cc1nc2c(Cl)cccc2c(N2CC3(CCOCC3)c3ncc(N4CCOCC4)cc32)c1C [1′-(8-chloro-2,3-dimethyl-4-quinolinyl)-6′-(4-morpholinyl)-1′,2,2′,3,5,6-hexahydrospiro[pyran-4,3′-pyrrolo[3,2-b]pyridine]] | 2.68 nM
12 | Cc1c(N2CCOC(C)(C)C2)nc2cc(F)cc(F)c2c1N1CC(C)(C)c2ncc(N3CCOCC3)cc21 [2-(2,2-dimethyl-4-morpholinyl)-4-(3,3-dimethyl-6-(4-morpholinyl)-2,3-dihydro-1H-pyrrolo[3,2-b]pyridin-1-yl)-5,7-difluoro-3-methylquinoline] | 1.52 nM
13 | Cc1c(-c2cc(F)ccc2F)nc2cc(F)ccc2c1N1CC(C)(C)c2ccc(N3CCOCC3)cc21 [2-(2,5-difluorophenyl)-4-(3,3-dimethyl-6-(4-morpholinyl)-2,3-dihydro-1H-indol-1-yl)-7-fluoro-3-methylquinoline] | 20.3 nM
14 | Cc1c(-c2cc(C(F)(F)F)cc(C(F)(F)F)c2)nc2cccc(F)c2c1N1CC(C)(C)c2ccc(N3CCOCC3)cc21 [2-(3,5-bis(trifluoromethyl)phenyl)-4-(3,3-dimethyl-6-(4-morpholinyl)-2,3-dihydro-1H-indol-1-yl)-5-fluoro-3-methylquinoline] | 3780 nM
15 | Cc1c(-c2cc(C(F)(F)F)cc(C(F)(F)F)c2)nc2cc(F)ccc2c1N1CC(C)(C)c2ccc(N3CCOCC3)cc21 [2-(3,5-bis(trifluoromethyl)phenyl)-4-(3,3-dimethyl-6-(4-morpholinyl)-2,3-dihydro-1H-indol-1-yl)-7-fluoro-3-methylquinoline] | 3080 nM
16 | Cc1c(-c2cc(F)cc(F)c2)nc2cnccc2c1N1CC(C)(C)c2ncc(N3CCOCC3)cc21 [2-(3,5-difluorophenyl)-4-(3,3-dimethyl-6-(4-morpholinyl)-2,3-dihydro-1H-pyrrolo[3,2-b]pyridin-1-yl)-3-methyl-1,7-naphthyridine] | 2.36 nM
17 | Cc1c(-c2cc(F)cc(F)c2)nc2ncccc2c1N1CC(C)(C)c2ncc(N3CCOCC3)cc21 [2-(3,5-difluorophenyl)-4-(3,3-dimethyl-6-(4-morpholinyl)-2,3-dihydro-1H-pyrrolo[3,2-b]pyridin-1-yl)-3-methyl-1,8-naphthyridine] | 3.11 nM

Row | Structure (SMILES) | Ki
18 | Cc1c(C2CC2)nc2ncccc2c1N1CC(C)(C)c2ncc(N3CCOCC3)cc21 [2-cyclopropyl-4-(3,3-dimethyl-6-(4-morpholinyl)-2,3-dihydro-1H-pyrrolo[3,2-b]pyridin-1-yl)-3-methyl-1,8-naphthyridine] | 32 nM
19 | Cc1c(-c2cccc(C#N)c2)nc2cc(F)ccc2c1N1CC(C)(C)c2ccc(N3CCOCC3)cc21 [3-(4-(3,3-dimethyl-6-(4-morpholinyl)-2,3-dihydro-1H-indol-1-yl)-7-fluoro-3-methyl-2-quinolinyl)benzonitrile] | 154 nM
20 | Cc1c(Cc2cccc(C#N)c2)nc2cc(F)cc(F)c2c1N1CC(C)(C)c2ncc(N3CCOCC3)cc21 [3-((4-(3,3-dimethyl-6-(4-morpholinyl)-2,3-dihydro-1H-pyrrolo[3,2-b]pyridin-1-yl)-5,7-difluoro-3-methyl-2-quinolinyl)methyl)benzonitrile] | 2.68 nM
21 | Cc1cc(-c2ccc3c(c2)N(c2c(C)c(-c4ccccn4)nc4cc(F)ccc24)CC3(C)C)nc(N)n1 [4-(1-(7-fluoro-3-methyl-2-(2-pyridinyl)-4-quinolinyl)-3,3-dimethyl-2,3-dihydro-1H-indol-6-yl)-6-methyl-2-pyrimidinamine] | 449 nM
22 | Cc1c(-c2ccccn2)nc2cc(F)ccc2c1N1CC(C)(C)c2ncc(-c3cn[nH]c3)cc21 [4-(3,3-dimethyl-6-(1H-pyrazol-4-yl)-2,3-dihydro-1H-pyrrolo[3,2-b]pyridin-1-yl)-7-fluoro-3-methyl-2-(2-pyridinyl)quinoline] | 95.2 nM
23 | Cc1nc2c(C)cccc2c(N2CC(C)(C)c3ccc(N4CCOCC4)cc32)c1C [4-(3,3-dimethyl-6-(4-morpholinyl)-2,3-dihydro-1H-indol-1-yl)-2,3,8-trimethylquinoline] | 44 nM
24 | Cc1nc2c(C(F)(F)F)cccc2c(N2CC(C)(C)c3ccc(N4CCOCC4)cc32)c1C [4-(3,3-dimethyl-6-(4-morpholinyl)-2,3-dihydro-1H-indol-1-yl)-2,3-dimethyl-8-(trifluoromethyl)quinoline] | 516 nM
25 | Cc1nc2ccccc2c(N2CC(C)(C)c3ccc(N4CCOCC4)cc32)c1C [4-(3,3-dimethyl-6-(4-morpholinyl)-2,3-dihydro-1H-indol-1-yl)-2,3-dimethylquinoline] | 362 nM
26 | Cc1c(-c2ccccc2F)nc2ccccc2c1N1CC(C)(C)c2ccc(N3CCOCC3)cc21 [4-(3,3-dimethyl-6-(4-morpholinyl)-2,3-dihydro-1H-indol-1-yl)-2-(2-fluorophenyl)-3-methylquinoline] | 47 nM
27 | Cc1c(-c2ccccc2)nc2ccccc2c1N1CC(C)(C)c2ccc(N3CCOCC3)cc21 [4-(3,3-dimethyl-6-(4-morpholinyl)-2,3-dihydro-1H-indol-1-yl)-3-methyl-2-phenylquinoline] | 85.4 nM
28 | Cc1cnc2ccccc2c1N1CC(C)(C)c2ccc(N3CCOCC3)cc21 [4-(3,3-dimethyl-6-(4-morpholinyl)-2,3-dihydro-1H-indol-1-yl)-3-methylquinoline] | 654 nM
29 | Cc1c(N2CCCCC2)nc2cc(F)cc(F)c2c1N1CC(C)(C)c2ccc(N3CCOCC3)cc21 [4-(3,3-dimethyl-6-(4-morpholinyl)-2,3-dihydro-1H-indol-1-yl)-5,7-difluoro-3-methyl-2-(1-piperidinyl)quinoline] | 73.7 nM
30 | Cc1c(-c2ccccn2)nc2cccc(F)c2c1N1CC(C)(C)c2ccc(N3CCOCC3)cc21 [4-(3,3-dimethyl-6-(4-morpholinyl)-2,3-dihydro-1H-indol-1-yl)-5-fluoro-3-methyl-2-(2-pyridinyl)quinoline] | 156 nM
31 | COc1cc(OC)c2nc(C)c(C)c(N3CC(C)(C)c4ccc(N5CCOCC5)cc43)c2c1 [4-(3,3-dimethyl-6-(4-morpholinyl)-2,3-dihydro-1H-indol-1-yl)-6,8-dimethoxy-2,3-dimethylquinoline] | 3970 nM
32 | Cc1c(-c2ccccc2F)nc2cc(F)ccc2c1N1CC(C)(C)c2ccc(N3CCOCC3)cc21 [4-(3,3-dimethyl-6-(4-morpholinyl)-2,3-dihydro-1H-indol-1-yl)-7-fluoro-2-(2-fluorophenyl)-3-methylquinoline] | 197 nM
33 | Cc1c(-c2ccccc2S(C)(=O)=O)nc2cc(F)ccc2c1N1CC(C)(C)c2ccc(N3CCOCC3)cc21 [4-(3,3-dimethyl-6-(4-morpholinyl)-2,3-dihydro-1H-indol-1-yl)-7-fluoro-3-methyl-2-(2-(methylsulfonyl)phenyl)quinoline] | 4.43 nM
34 | COc1cc2nc(C)c(C)c(N3CC(C)(C)c4ccc(N5CCOCC5)cc43)c2cc1C [4-(3,3-dimethyl-6-(4-morpholinyl)-2,3-dihydro-1H-indol-1-yl)-7-methoxy-2,3,6-trimethylquinoline] | 622 nM
